# Experimental data from US5395611A, “Phenolic amine depigmenting and antimelanoma agents” (The Governors of the University of Alberta, priority 1992, dated 1995).
# “And” between values parts separate entries of the source, which are not always exact repeats. Identical values can stand only once. “Also recorded” adds a separate entry of the source.
# Columns and labels:
# [1] = in vivo; details: mouse, ip
# Procedure: 3:1-85 1972. In accordance with this Protocol, ten to fifteen mice were used in each test group. They were weighed and randomized at day one after s.c. inoculation of B16 melanoma cells. From day five, the phenolic melanin precursors were administered i.p. daily for nine days. The test compounds were dissolved in normal saline, and sterilized by heating to 100° C. for 2 minutes. […] They were administered j.p. with the following doses: 400 mg/Kg - 4-S-CAP; 200 to 300 mg/Kg - 4-S-CAP; and 200 to 1200 mg/Kg - N-Ac-4-S-CAP. A catalytic amount of L-dopa, 25 mg/Kg and antidecarboxylase, carbidopa, 400 mg/Kg, were also administered. Carbidopa was given one hour prior to L-dopa administration. DTIC (NSC 4538) was used as a control drug at a dose of 60 mg/Kg. Acute toxicity of 4-S-CP and 4-S-CAP was evaluated from 100 to 1600 mg/Kg.
# The B16 mouse melanoma was maintained by s.c. inoculation of tumour cells into the back of C57BL7J mice (5 to 6 weeks, female). […] Briefly, excised tumours were homogenized in normal saline. The homogenized tumour cells were then passed through a sterile 80 mesh stainless steel screen, washed with normal saline, centrifuged (500 g. for 10 minutes) and resuspended in normal saline. Suspensions of viable melanoma cells at the concentration of 1×10^6 per 0.1 ml were inoculated s.c. into both the right and left inguinal areas of C57BL/6J mice (female, 5 to 6 weeks old, 18 to 20 gm).
# [2] = acute toxicity, evaluated 100 to 1600 mg/Kg (Miura et al); cited from earlier work
# [3] = Urinary excretion after i.p. injection (metabolic assay); assay type: in vivo, mice; details: 5.2 mg/mouse
# Procedure: Fifteen mice randomly divided into three groups of five were injected i.p. with a test agent (300 mg/kg) dissolved in N saline solution. Group 1 were injected with 4-S-CAP, group 2 with N-Ac-4-S-CAP, group 3 were controls. The mice are kept in metabolic cages; their urine is collected 3, 8 and 24 hr after injection, and the 4-S-CAP and N-Ac-4-S-CAP content is measured by HPLC in a system consisting of a Waters 600E liquid chromatography, with a Bondapak C18 column (3.0×300 mm; particle size, 10 μm) and a Waters 460 electrochemical detector. Mobile phase: 0.1M potassium phosphate buffer, pH 2.1, containing 0.1 mM Na2 EDTA methanol, 80:20 (v/v); column temperature, 60° C.; flow rate 1.0 ml/min. Urine samples are hydrolysed with 0.1M HCl before assay, and the phenols are detected at 850 mV against an Ag/AgCl reference electrode.
# [4] = system: follicular melanocytes; details: in words; cited from earlier work
# [5] = system: plasma monoamine oxidase (MAO); assay: Enzyme kinetics for monoamineoxidase (plasma MAO); assay type: biochemical
# Procedure: (§1) Mushroom tyrosinase (400 units/mg) and plasma MAO (1000 units/gm) were obtained from Sigma Chemical Co. (St. Louis, Mo., USA). A reaction mixture consisted of a substrate of 7 to 8 different concentrations (40 to 500 μM for mushroom tyrosinase and 20 to 200 μM for MAO) and of either mushroom tyrosinase (2.5 μg) or MAO (10 μg) in 1.0 mL of 0.05M sodium phosphate buffer, pH 6.8 and 7.4 respectively. The reactions were carried out at 37° C. in a shaking water bath, and stopped by taking 100 μL of the reaction mixture and adding it to 900 μL of 0.4M HCLO4. The disappearance of substrate was followed using HPLC (high pressure liquid chromatography) Km and Vmax values were calculated from the Lineweaver-Burk plots.
# [6] = system: B16F10 melanoma colonies; assay: Melanoma-colony formation in the lungs; assay type: in vivo, mouse
# Procedure: Murine B16F10 melanoma cell line with a strong metastatic property to form tumour colonies in the lungs was obtained from Dr. Longenecker, Department of Immunology, University of Alberta. Such cell line is well recognized and readily available as reported in Miura et al, supra. The cells were grown in T-75 flasks in dulbecco's MEM available from Gipco Lab Inc., Grand Island, N.Y., supplemented with 10% fetal calf serum, also obtained from Gipco, penicillin (100 μ/ml) and streptomycin (100 μg/ml). The cells were incubated at 37° C. in humidified atmosphere of 5% CO2 in air. […] Viable cells were identified by trypan blue dye exclusion and counted. The cell suspension was diluted to the desired concentration. […] On day zero, the mice were inoculated via the lateral tail vein with 5×10^4 cells in 0.2 ml of N saline. The test drugs were dissolved in normal saline, sterilized by membrane filtration, and administered in a dose of 300 mg/Kg (4 -S-CAP) or 900 mg/Kg (N-Ac-4-S-CAP); starting on day five, the control solution or drug was injected i.p. daily for 14 days. On day 26, the mice were killed by cervical dislocation, their lungs were removed, and the number of melanoma colonies was counted under a dissecting microscope. The results were expressed as percentage reduction in the number of colonies: [a-b/a]×100, where a=colonies in control group and b=colonies in experimental group.
# [7] = system: mushroom tyrosinase; assay: Enzyme kinetics for tyrosinase; assay type: biochemical
# Procedure: as §1
# ^a mushroom tyrosinase; 11 unit/ml of tyrosinase was used. One enzyme
# unit will cause an increase in A280 of 0.001 per min at pH 6.8 at
# 25° C. using Ltyrosine as substrate.
# [8] = system: black guinea pig skin; details: topical application, cited from earlier work
# [9] = system: B16 melanoma; assay: In vivo growth inhibition of s.c. inoculated B16 melanoma; parameters: species or system mouse; details: for % Gi (growth inhibition): 200 mg/Kg
# Procedure: Briefly, excised tumours were homogenized in normal saline.
# The in vivo antimelanoma effect of the compounds were evaluated by percent growth inhibition of inoculated tumour (% g.i.). The percent g.i. was computed from the mean tumour volume at day 12 or 13 of the experiments; i.e., 100× (1- treated group/control group). Tumour volume was calculated by the following formula:
# tumour volume=long axis×(short axis)^2 ×1/2.
smiles,measurement,setting,value
"NCCSc1ccc(O)cc1 [4-S-CAP, 4-S-cysteaminylphenol, reference compound]",MTD,[1],200 to 300 mg/kg
same,Lethal dose,[2],400 mg/kg
same,"Urinary excretion of unchanged compound, amount",[3]; 3 h after i.p. injection,0.399 ± 0.018 mg
same,"Urinary excretion of unchanged compound, amount",[3]; 8 h after i.p. injection,0.443 ± 0.023 mg
same,"Urinary excretion of unchanged compound, amount",[3]; 24 h after i.p. injection,0.458 ± 0.021 mg
same,dose excreted at 3 h,"[3]; urine, ip, 300 mg/kg, 3 h after i.p. injection, read-out: Urinary excretion of unchanged compound, % of dose",7.7%
same,dose excreted at 8 h,"[3]; urine, ip, 300 mg/kg, 8 h after i.p. injection, read-out: Urinary excretion of unchanged compound, % of dose",8.5%
same,dose excreted at 24 h,"[3]; urine, ip, 300 mg/kg, 24 h after i.p. injection, read-out: Urinary excretion of unchanged compound, % of dose",8.8%
same,Effect on albino follicles,[4],no effect on the albino follicles
same,Effect on black hair follicles / black hair,[4],demonstrated cytotoxicity in the depigmentation of black hair follicles; also recorded: depigmentation of black hair as manifested by loss of functioning melanocytes
same,Substrate for plasma MAO,[5]; in words,substrate for both plasma MAO and tyrosinase
same,Km,"[5]; plasma MAO, pH 7.4, 37° C.",52.6 µM
same,"Colonies, % control","[6]; 300 mg/kg i.p. daily for 14 days, day 26",32.4% and 30%
same,Number of B16F10 melanoma colonies,[6]; in words,significantly reduced
same,Substrate for tyrosinase,[7]; in words,substrate for both plasma MAO and tyrosinase
same,Km,"[7]; mushroom tyrosinase, pH 6.8, 37° C.",117 µM
same,Inflammatory changes of the skin,[8]; guinea pigs,inflammatory changes of the skin of the guinea pigs was prominent
same,Depigmentation of black guinea pig skin,[8],demonstrated depigmenting properties
same,% Gi (growth inhibition),[9]; Experiment I,54.0%
same,% Gi (growth inhibition),[9]; Experiment II,25.1%
same,Growth inhibition of B16 melanoma,[9]; in words,greater anti-melanoma effect at 200 mg/Kg than N-Ac-4-S-CAP
